Data: patent US6541463B1, “Inhibitors of type 5 and type 3 17β-hydroxysteroid dehydrogenase and methods for their use” (Endorecherche, Inc., priority 1998, dated 2003)
Several values for one entry are separate records, joined by “and”; a condition that tells them apart may be missing. Identical values can stand only once. Like-named read-outs stand apart in the source and are kept apart here.

Target: T1, human type 5 17β-hydroxysteroid dehydrogenase (Homo sapiens, UniProt P42330)
T1 construct: screen again a human placental λgt11 cDNA to get the full length cDNA clone; expressed in transfected cells; host or cells: human embryonal kidney 293 cells (pCMV / pCMV-neo vector)
T1 sequence (P42330 1-323): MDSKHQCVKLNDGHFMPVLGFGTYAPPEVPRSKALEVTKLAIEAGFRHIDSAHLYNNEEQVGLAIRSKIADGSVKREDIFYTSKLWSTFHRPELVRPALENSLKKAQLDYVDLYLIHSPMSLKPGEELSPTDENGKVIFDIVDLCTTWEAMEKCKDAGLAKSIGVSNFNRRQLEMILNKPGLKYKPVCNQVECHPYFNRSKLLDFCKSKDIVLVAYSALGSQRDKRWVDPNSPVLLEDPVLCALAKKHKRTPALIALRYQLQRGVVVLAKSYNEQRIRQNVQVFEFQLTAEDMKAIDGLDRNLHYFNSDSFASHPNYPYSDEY
Experiment: Inhibition of human type 5 17β-HSD activity in transfected 293 cells
Type: cell-based
Set-up: Inhibition Type V 17B-HSD % Inh. At 3 · 10^−7 (second value in parentheses): concentration or dose not given beside the values
Experimental: The manner in which IC50 was determined is described in “Efficacy of the Preferred Inhibitors”. Lower numbers for IC50 are desirable.
Using a oligoprimer pair (5′-GGA-AAT-CGT-GAC-AGG-GAA-TGG-ATT-CCA-AAC-AG-3′, 5′-GGA-ATT-CTT-TAT-TGT-ATT-TCT-GGC-CTA-TGG-AGT-GAG-3′) derived from human aldoketoreductase (Qin et al., J. Steroid Biochem. Molec. Biol. 46: 673-679, 1993) and polymerase chain reaction (PCR), we have amplified from a human placental λgt11 cDNA library (Clontech Laboratories Inc., Palo Alto, Calif.) a cDNA fragment that was used as probe to screen again a human placental λgt11 cDNA to get the full length cDNA clone. The amplified cDNA fragment was purified on agarose gel and labeled with [α^32P]dCTP (Amersham Corp.) using the random primer labeling kit from Pharmacia Inc. PCR amplification reaction medium contained 50 mM KCl, 10 mM Tris-HCl, pH 8.3, 0.1% gelatin, 1 mM MgCl2, 250 μM dNTP, 0.25 μM oligonucleotide primers, and 200 ng of DNA prepared from human placental λgt11 cDNA library. The aqueous phase was overlaid with 75 μL of mineral oil to avoid evaporation. The mixture was heated at 98° C. for 5 min, following the temperature reduction to 72° C., 1 unit of Taq DNA polymerase was added. Using a DNA Thermal Cycler (Perkin-Elmer Corp.), 30 cycles of amplification were carried out using a step program (94° C., 1 min; 60° C., 1 min; and 72° C., 1 min)/cycle.
Approximately 5×10^5 recombinant phage plaques were screened with 1.5×10^6 cpm/ml of the probe. Prehybridization was performed for 4 h at 42° C. in 50% formamide, 5× Denhardt's solution (1× Denhardt's being 0.02% polyvinyl pyrrolidone, 0.02 Ficoll, 0.02 bovine serum albumin), 5×SSPE (1×SSPE being 0.18M NaCl, 10 mM NaH2PO4, pH 7.4, 1 mM EDTA), 0.1% SDS, and 100 μg/ml yeast tRNA. The probe was denatured by heating at 100° C. for 5 min, before being added to the hybridization solution at 42° C. overnight. Filters were then washed twice at room temperature in 2×SSC (1×SSC being […], pH 7.0), 0.1% SDS, and twice in 0.1×SSC, 0.1% SDS at 60° C. Positive recombinant plaques were purified by replating twice and grown in liquid culture. Phage DNA were isolated by centrifugation for 90 min at 105,000×g, and DNA was then isolated by phenol extraction and precipitation with isopropanol (Karen et al. 1987; In: Current Protocols in Molecular Biology (F. M. Ausubel, R. Brent, E. Kingston, D. D. Moore, T. G. Seidman, T. A. Smith and K. Struhl, eds), Wiley & Sons, New York, pp. 1.13.1-1.13.6).
The phage DNA were digested with EcoRI restriction enzymes and the resulting cDNA fragments were inserted into the EcoRI site downstream to the cytomegalovirus (CMV) promoter of the pCMV vector (kindly provided by Dr. Matthew, Cold Spring Harbor, N.Y., USA). Recombinant pCMV plasmids were amplified in Escherichia Coli DH5α competent cells, and were isolated by alkaline lysis procedure (Maniatis et al., In: Molecular cloning: a laboratory manual, Cold Spring Harbor Laboratory., 1982). Sequencing of double-stranded plasmid DNA was performed according to the dideoxy chain termination method (Sanger et al., PNAS 74: 5453-5467, 1977) using a T7 DNA polymerase sequencing kit (Pharmacia LKB Biotechnology). To avoid errors, all sequences were determined by sequencing both strands of the DNA. Oligonucleotide primers were synthesized in our laboratory with a 394 DNA/RNA synthesizer (Applied Biosystem).
The pCMV vector contain 576 nucleotides of the pCMV promoter (followed by 432 bp of small t intron (fragment 4713-4570) and poly adenylation signal (2825-2536)of SV40, followed by 1989 bp of the Pvu II(628)-AatII (2617) fragment from pUC 19 vector (New England Biolabs) that contains an E. Coli origin of replication and an ampicillin resistance gene for propagation in E. Coli. […]

[1] = read-out: Inhibition Type V 17B-HSD IC50
[2] = Table 4′, read-out: Inhibition Type V 17β-HSD IC50
[3] = read-out: Inhibition Type V 17β-HSD IC50

Q: CC12C=CC(=O)C=C1C=CC1C2CCC2(C)C(=O)C3(CCCCC3)CC12 (stereo not drawn) [CS-204] was tested. Which IC50 [1] did it give?
A: Its IC50 is 94 nM.

Q: Which IC50 [2] does the source give for CC1(C)CCC2(CCC3C4CCc5ccccc5C4CCC32C)OC1=O (stereo not drawn) [CS-224] here?
A: Its IC50 is 2.9 nM and 10.7 nM.

Q: With CC(=O)O[C@]1(C)C(=O)CCC2C3C=C(C)C4=CC(=O)C=C[C@]4(C)C3CC[C@@]21C (stereo partly drawn) [CS-237] as the compound, how does the IC50 [1] read?
A: The IC50 was 9 ± 1 nM.

Q: With CSCCOc1ccc2c(c1)CCC1C2CCC2(C)C1CCC21CCCC(=O)O1 [CS-242, 3-Methylthioethyloxy-1,3,5(10)-estratrien-17(R)-spiro-2′-(6′-oxo) Tetrahydropyran] as the compound, how does the IC50 [2] read?
A: The IC50 was 6.6 ± 0.9 nM.

Q: With CCC(=O)O[C@]1(C(C)=O)CCC2C3C=C(C)C4=CC(=O)C[C@H](C)[C@]4(C)C3CC[C@@]21C (stereo partly drawn) [CS-243] as the compound, how does the IC50 [3] read?
A: Its IC50 is 3.5 ± 0.1 nM.

Q: How did the IC50 [3] turn out when CCCC(=O)OC1(C(C)=O)CCC2C3C=C(C)C4=CC(=O)CC(C)C4(C)C3CCC21C (stereo not drawn) [CS-245] was run?
A: The IC50 was 3.2 ± 0.1 nM.

Q: For C[C@]12CCC3c4ccc(O)cc4CCC3C1CC[C@@]21CCCC(=O)O1 (stereo partly drawn) [EM-919, 1,3,5(10)-estratrien-3-ol-17(R)-spiro-2′(6′-oxo)tetrahydropyran], which IC50 [2] is on record?
A: Its IC50 is 10 ± 1.4 nM.

Q: Which results are given for CC1=C[C@@H]2[C@H](CC[C@]3(C)C(=O)C4(CCCCC4)C[C@@H]23)[C@@]2(C)CCC(=O)C=C12 [EM-925]?
A: Inhibition Type V 17B-HSD % Inh. At 3 · 10^−7 (first value in parentheses) (first of two concentrations, 3 · 10^−7): (46%; Inhibition Type V 17B-HSD % Inh. At 3 · 10^−7 (second value in parentheses) (second of two concentrations, 3 · 10^−7): 81) %

Q: With COC(=O)CCCC(=O)O[C@]1(C(C)=O)CC[C@H]2[C@@H]3C=C(C)C4=CC(=O)CC[C@]4(C)[C@H]3CC[C@@]21C [EM-1007, 6-Methyl-4,6-pregnadien-17α-ol-3,20-dione 4′-Carbomethoxybutyrate] as the compound, how does the “Inhibition Type V 17β-HSD % Inh.” value (at 3.10^−6) read?
A: The value was 86) %.

Q: What about the “Inhibition Type V 17β-HSD % Inh.” value (at 3.10^−7) of the same compound?
A: Its value is “(81%”.

Q: Which IC50 [2] does the source give for CC1CCC2(CCC3C4CCc5ccccc5C4CCC32C)OC1=O (stereo not drawn) [EM-1025] here?
A: The IC50 was 6.1 nM and 4.3 nM.

Q: For CCCC(=O)O[C@]1(C)C(=O)CCC2C3C=C(C)C4=CC(=O)CC[C@]4(C)C3CC[C@@]21C (stereo partly drawn) [EM-1078], which IC50 [1] is on record?
A: The IC50 was 3.8 ± 0.6 nM.

Q: CCC[C@@H]1CC2C3C=CC4=CC(=O)CC[C@]4(C)C3CC[C@]2(C)C1=O (stereo partly drawn) [EM-1097] was tested. Which IC50 [1] did it give?
A: The IC50 was 10 nM.

Q: With CN1C(=O)C=C[C@]2(C)C3CC[C@@]4(C)C(CC[C@@]45CCCC(=O)O5)C3CCC12 (stereo partly drawn) [EM-1122-CS] as the compound, how does the “Inhibition Type V 17β-HSD % inh. At 3.10^−6” value (Table 5 column 2, 3.10^−6) read?
A: The value was 95) %.

Q: And the “Inhibition Type V 17β-HSD % inh. At 3.10^−7” value (Table 5 column 2, 3.10^−7)?
A: The value was “(80%”.

Q: For C[C@]12CCC3c4cc([N+](=O)[O-])c(O)cc4CCC3C1CC[C@@]21CCCC(=O)O1 (stereo partly drawn) [EM-1124, 2-Nitro-1,3,5(10)-estraetriene-3-ol-17(R)-spiro-2′-(6′-oxo)tetrahydropyran], which IC50 [2] is on record?
A: Its IC50 is 3 ± 0.2 nM.

Q: Which IC50 [2] does the source give for CC1(C)CCC2(CCC3C4CCc5cc(O)c([N+](=O)[O-])cc5C4CCC32C)OC1=O (stereo not drawn) [EM-1125-CS] here?
A: Its IC50 is 2 nM.

Q: CC1CCC2(CCC3C4CCc5cc(O)c([N+](=O)[O-])cc5C4CCC32C)OC1=O [EM-1126, 2-Nitro-1,3,5(10)-estratrien-3-ol-17(R)-spiro-2′-(5′-methyl-6′-oxo)tetrahydropyran] was tested. Which IC50 [2] did it give?
A: Its IC50 is 6 ± 1 nM.

Q: How did the IC50 [2] turn out when CC1CCC2(CCC3C4CCc5cc(O)c([N+](=O)[O-])cc5C4CCC32C)OC1=O [EM-1131, 2-Nitro-1,3,5(10)-estratrien-3-ol-17(R)-spiro-2′-(5′-methyl-6′-oxo)tetrahydropyran] was run?
A: The IC50 was 3 nM.

Q: How did the IC50 [2] turn out when CC1(C)CC[C@@]2(CCC3C4CCc5cc(F)ccc5C4CC[C@@]32C)OC1=O (stereo partly drawn) [EM-1157-CS] was run?
A: The IC50 was 4 nM and 10 nM.
